The term log P denotes a log measure of how a compound divides between an organic and an aqueous phase. Lower therefore signals lower lipophilicity. Broadly, the Kd is a measure of binding affinity in units of concentration. Read a low Kd as higher affinity.

Where no end group is shown, it is not given here.

Consider six compounds from US12527741B2, “Modular dendron micelles for treatment of pulmonary diseases related to fibrosis and viral infection including COVID-19” (priority 2021, dated 2026).

Data set [1] deals with idiopathic pulmonary fibrosis. As to conditions: IPF patients; cited from earlier work.
Data set [2] is described as follows: Drug loading and encapsulation efficiency of PCL14K-DMs. The format is physicochemical. Particulars: initial loading 20% wt, Dialysis.
A short description of data set [3]: Hydrophobicity (log P) of BRD4 inhibitors. The class given is physicochemical.
In another data set the test system is 7860 cells. Kind of data set: Binding to high PD-L1 expressing cells. The format is cell-based. Particulars: fluorescence. The source says:
(§1) (SEQ ID NO: 5), optimized from the literature.

Another data set relates to MCF-7 cells. Kind of data set: Binding to cells with low PD-L1 expression. The class given is cell-based.
Source text: as §1

In the next data set the target is PD-L1 (Homo sapiens, UniProt Q9NZQ7). Particulars: SPR. In general terms: Surface plasmon resonance follows binding to a sensor surface in real time, without labels.
Data set [4] relates to TGFβ-induced NOX4/SM22α/FN1 expression. Kind of data set: TGFβ-induced myofibroblast transition, Q-RT-PCR of NOX4, SM22α and FN1. The class given is cell-based.
The next data set concerns fibroblast contractility. The class given is cell-based. As to conditions: TGFβ-induced.
The test system of another data set is BRD isoforms. The format is binding. Particulars: data not shown.
The next data set concerns the target BRD3 (Homo sapiens, UniProt Q15059). Kind of data set: Binding affinity to BRD3. The text has this:
(§2) BRD4 is a member of the bromodomain and extraterminal (BET) protein family, containing two conserved bromodomains (BD). The BD is a high-affinity binding pocket for BRD4 binding to acetylated Lys residues on histones and transcription factors critical for histone acetyltransferase (HAT) activity. Small molecule BRD4 inhibitors that interact with the BRD4 BD inhibit BRD4 function by displacing BRD4 from genome binding sites, disrupting coactivator binding, and inhibiting its atypical HAT activity. A major limitation of pharmacological approaches to modifying BRD4 is that available inhibitors have poor selectivity for BRD isoforms. A third generation BRD4 inhibitor (BRD4i) with high selectivity for the BRD4 BD1 domain has been identified. This compound, ZL0591, binds with approximately 100 nM affinity to BRD4 BD1, but has 10× lower affinity for the BRD4 BD2 domain, and similarly has low affinity for BRD3.

Data set [5] relates to Bleomycin-induced fibrosis. Kind of data set: Bleomycin-induced pulmonary fibrosis, therapeutic dosing. The format is in vivo, mice.
Another data set deals with BRD4 BD2 domain (Homo sapiens, UniProt O60885). Kind of data set: Binding affinity to BRD4 BD2.
Source text: as §2

Another data set is described as follows: Intravenous half-life. The format is in vivo.
A further data set deals with BRD4 BD1 (Homo sapiens, UniProt O60885). Kind of data set: Binding affinity to BRD4 BD1.
Source text: as §2

Sequence of BRD3 (Q15059 whole entry, species assumed, the tested form may be a part, canonical isoform): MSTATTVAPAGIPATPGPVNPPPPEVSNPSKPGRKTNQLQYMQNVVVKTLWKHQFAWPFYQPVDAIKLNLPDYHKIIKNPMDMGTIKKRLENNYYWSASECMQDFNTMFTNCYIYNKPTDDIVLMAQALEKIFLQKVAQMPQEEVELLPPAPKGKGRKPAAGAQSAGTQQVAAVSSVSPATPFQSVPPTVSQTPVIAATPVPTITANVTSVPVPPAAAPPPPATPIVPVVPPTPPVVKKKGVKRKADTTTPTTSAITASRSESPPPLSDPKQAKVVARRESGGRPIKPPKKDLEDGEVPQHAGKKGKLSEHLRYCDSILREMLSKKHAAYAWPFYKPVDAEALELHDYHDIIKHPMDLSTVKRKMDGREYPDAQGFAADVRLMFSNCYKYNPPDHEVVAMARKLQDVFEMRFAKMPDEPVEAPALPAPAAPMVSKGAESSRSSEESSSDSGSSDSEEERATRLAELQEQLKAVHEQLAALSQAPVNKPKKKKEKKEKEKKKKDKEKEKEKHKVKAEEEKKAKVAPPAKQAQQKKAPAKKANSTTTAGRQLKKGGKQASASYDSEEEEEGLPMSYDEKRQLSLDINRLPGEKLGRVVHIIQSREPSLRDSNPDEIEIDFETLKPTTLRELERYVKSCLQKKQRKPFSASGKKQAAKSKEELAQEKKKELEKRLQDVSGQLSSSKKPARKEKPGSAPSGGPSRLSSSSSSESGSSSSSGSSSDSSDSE
Sequence of PD-L1 (Q9NZQ7 19-290): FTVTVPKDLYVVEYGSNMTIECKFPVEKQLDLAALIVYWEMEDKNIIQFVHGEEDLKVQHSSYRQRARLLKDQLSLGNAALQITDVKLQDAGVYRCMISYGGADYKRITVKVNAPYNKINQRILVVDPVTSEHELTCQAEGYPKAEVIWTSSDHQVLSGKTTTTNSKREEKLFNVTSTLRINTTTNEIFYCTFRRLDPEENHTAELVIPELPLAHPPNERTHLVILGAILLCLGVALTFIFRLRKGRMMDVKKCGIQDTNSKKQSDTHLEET

For the compound `COC(=O)c1ccc2c(c1)NC(=O)/C2=C(\Nc1ccc(N(C)C(=O)CN2CCN(C)CC2)cc1)c1ccccc1` [Nintedanib, nintedanib], the “Decrease/loss of forced vital capacity (FVC)” value in data set [1] is given as “efficacy was shown”.
In the case of `Cc1ccc(=O)n(-c2ccccc2)c1` [pirfenidone], in [1], the “Decrease/loss of forced vital capacity (FVC)” value is “slows” and the Progression-free survival entry is given as “improves”.
`COc1cc(OC)c2c(=O)cc(-c3cc(C)c(OC[C@H](O)CN4CCN(C)CC4)c(C)c3)oc2c1` [ZL0516]: in data set [2], the “Drug Loading %” value turned out to be 0.70 ± 0.17% and the “Encapsulation Efficiency %” value stood at 2.52 ± 0.17%. Also, the “log P” value in data set [3] is listed as 2.89.
Regarding “G7-pPD1: PD-L1-binding peptide pPD-1 conjugated to G7 PAMAM dendrimers (HVVWHRESPSGQTDTLAA; also: conjugated to G7 PAMAM dendrimers, site not given here)”, the “Binding to PD-L1 expressing cells” value is reported as “selective binding” with 7860 cells and “specific interaction” in the data set with 7860 cells (listed as dendrimer-pPD-1). Further, the “Interaction with low PD-L1 expression cells” value with MCF-7 cells is on record as “lack of observed interactions”. Further, the “KD compared with full antibody (aPD-L1)” value with PD-L1 is listed as “comparable”.
Turning to `Cc1sc2c(c1C)C(c1ccc(Cl)cc1)=N[C@@H](CC(=O)OC(C)(C)C)c1nnc(C)n1-2` [JQ1], in [4], the FN1 expression result is on record as “effectively blocked”, the NOX4 expression entry is given as “effectively blocked” and the SM22α expression result is given as “effectively blocked”. The “Contractility (retraction of collagen plugs)” value in the data set with fibroblast contractility is given as “effectively inhibited”. In addition, the “Discrimination between BRD isoforms” value with BRD isoforms is given as “no discrimination”.
`O=C(Nc1ccc(C(F)(F)F)cc1)Nc1ccc(S(=O)(=O)N2CCC[C@H]2CN2CCC(O)CC2)cc1` [ZL0591]: the “Affinity for BRD3” value on BRD3 is on record as “low affinity”. The “Pulmonary collagen content (hydroxyproline in total lung homogenates)” value in [5] (10 mg/kg/dose systemic (IP), started 14 d after bleomycin, 14 d of treatment) is given as “significantly reduced”. Also, in [5] (bleomycin- and BRD4 inhibitor-treated vs controls), the Blood oxygen saturation entry is recorded as “increase”. In data set [5] (fixed lung sections), the “Alveolar consolidation and fibrotic pattern (Massons Trichrome)” value is recorded as “substantially reduced”. In data set [5] (scored by independent pathologist), the “Modified Ashcroft indices” value was “reduction in Ashcroft indices was statistically significant”. The “Lung density by microCT” value in [5] (vs bleomycin treated only) is given as “reduction”. Also, the “Lower affinity for BRD4 BD2 domain relative to BD1” value at BRD4 BD2 domain came to 10 ×. Also, in the data set “Intravenous half-life”, the “Intravenous T1/2” value was found to be 11.8 h. Besides, the Kd on BRD4 BD1 was ~100 nM.
